Here are results for 7 molecules from US8466171B2, “Fused heterocyclic compounds useful as modulators of nuclear hormone receptor function” (Bristol-Myers Squibb Company, priority 2007, dated 2013).

Where a chain is given by its changes, count along the chain named.

Data set [1] has as its system immature castrated rats. The data set is described as follows: Immature Rat Prostate Weight (IRPW) Assay. It is filed as in vivo. The settings on record: TP versus free T. An excerpt: The activity of compounds of Formula (I) as AR antagonists can be investigated in an immature male rat model, as described in L. G. Hershberger et al., Proc. Soc.
Male sexual accessory organs, such as the prostate and seminal vesicles, play an important role in reproductive function. These glands are stimulated to grow and are maintained in size and secretory function by the continued presence of serum testosterone (T), which is the major serum androgen (>95%) produced by the Leydig cells in the testis under the control of the pituitary luteinizing hormone (LH) and follicle stimulating hormone (FSH). […] Adrenal androgens also contribute about 20% of total DHT in the rat prostate, compared to 40% of that in 65-year-old men. […] However, this is not a major pathway, since in both animals and humans, castration leads to almost complete involution of the prostate and seminal vesicles without concomitant adrenalectomy. […] […] […] Since the male sex organs are the tissues most responsive to modulation of the androgen activity, this model is used to determine the androgen dependent growth of the sex accessory organs in immature castrated rats.
Male immature rats (19-20 days old Sprague-Dawley, Harlan Sprague-Dawley) are castrated under metofane anesthesia. […] Experimental groups are as follows:
At the end of the 3-day treatment, the animals are sacrificed, and the ventral prostate weighed. […]

For data set [2], the system named is immature castrated rats. The settings on record: cited from earlier work; for EC50 (increase in organ weight): immature castrated rats, dosing for 3 days.
Another data set has as its target T1, wild type AR (Homo sapiens, UniProt P10275).
T1 sequence (P10275 1-920 Q868H): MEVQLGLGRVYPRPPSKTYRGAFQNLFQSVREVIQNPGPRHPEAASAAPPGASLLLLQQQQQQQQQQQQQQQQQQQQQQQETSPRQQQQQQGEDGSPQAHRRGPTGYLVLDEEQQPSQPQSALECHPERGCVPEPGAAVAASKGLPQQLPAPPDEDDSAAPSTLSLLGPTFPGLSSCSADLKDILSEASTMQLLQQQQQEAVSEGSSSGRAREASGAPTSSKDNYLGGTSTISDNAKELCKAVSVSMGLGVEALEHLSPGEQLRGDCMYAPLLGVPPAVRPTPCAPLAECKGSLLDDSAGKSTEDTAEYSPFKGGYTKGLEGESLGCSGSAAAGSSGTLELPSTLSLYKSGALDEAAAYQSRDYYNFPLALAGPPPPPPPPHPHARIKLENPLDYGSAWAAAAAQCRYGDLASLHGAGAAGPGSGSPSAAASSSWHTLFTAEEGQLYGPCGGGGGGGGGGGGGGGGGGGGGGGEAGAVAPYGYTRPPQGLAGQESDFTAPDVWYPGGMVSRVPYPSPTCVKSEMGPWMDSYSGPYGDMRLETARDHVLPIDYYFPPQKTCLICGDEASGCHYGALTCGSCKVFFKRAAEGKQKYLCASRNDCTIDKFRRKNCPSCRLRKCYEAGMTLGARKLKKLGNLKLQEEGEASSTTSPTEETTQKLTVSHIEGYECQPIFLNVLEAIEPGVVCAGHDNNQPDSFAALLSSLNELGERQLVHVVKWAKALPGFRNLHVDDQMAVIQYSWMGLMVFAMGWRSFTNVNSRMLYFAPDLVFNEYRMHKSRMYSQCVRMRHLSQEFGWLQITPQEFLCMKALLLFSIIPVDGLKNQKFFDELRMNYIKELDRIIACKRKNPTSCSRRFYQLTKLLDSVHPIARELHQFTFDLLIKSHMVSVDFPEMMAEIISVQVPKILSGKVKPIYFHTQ
The data set is described as follows: AR Binding Assay (whole cell, MDA-MB-453, competition with [3H]-DHT). The following applies: MDA-MB-453 cells, competition with 2 nM [3H]-DHT, Cheng-Prusoff. Here is the method: For the whole cell binding assay, human breast adenocarcinoma MDA-MB-453 cells (American Type Culture Collection, Rockville, Md., ATCC #: HTB-131), expressing a functional endogenous wild type AR, are grown to near confluency in T-225 tissue culture flasks containing Dulbecco's Modified Eagle Medium (DMEM) (Mediatech CAT #45000-668) supplemented with 10% fetal bovine serum (FBS) (Invitrogen/GIBCO Life Science). In order to remove any endogenous ligand that might be complexed with the receptor in the cells, the tissue culture media is removed and the cells are incubated overnight at 37° C. in serum-free DMEM. The next day, cells are rinsed with magnesium and calcium free Phosphate Buffered Saline (PBS) (Invitrogen/GIBCO Life Science), harvested using Cell Stripper Buffer (Mediatech) and re-suspended in serum-free DMEM to achieve a final assay concentration of 4×10^5 cells/well of a 96-well assay plate. […] After the remaining media is removed, cells are washed three times with PBS and harvested onto UniFilter GF/B plates (PerkinElmer).
Two replicates are used for each sample. After 90 minutes at room temperature, cells are harvested by filtering through a GF/B filter plate (PerkinElmer) followed by washing with ice-cold 1×PBS (without calcium and magnesium) to remove unbound label. […] After correcting for non-specific binding, IC50 values are determined. The IC50 value is defined as the concentration of competing ligand needed to reduce specific binding by 50%. […] The Ki values are determined by application of the Cheng-Prusoff equation to the IC50 values where: […]
See e.g., D. Rodbard, Mathematics and Statistics of Ligand Assays: An Illustrated Guide: In: J. Langon and J. J. Clapp, eds., Ligand Assay, Masson Publishing U.S.A., Inc., New York, pp. 45-99 (1981).

For another data set, the target named is T2, androgen receptor (AR) (Homo sapiens, UniProt P10275).
T2 sequence (P10275 1-920): T1 sequence (P10275 1-920 Q868H) with H868Q
The data set is described as follows: MDA-MB-453 Androgen Receptor Transactivation Assay. The format is cell-based. The settings on record: MDA-MB-453 cells, PSA-Luc reporter, 3 nM DHT, 48 hour incubation. An excerpt: Compounds can be tested in a cell based transactivation assay used to measure the antagonism of androgen receptor (AR) transcriptional activity. […] The human breast adenocarcinoma MDA-MB-453 cell line (American Type Culture Collection, Rockville, Md., ATCC#: HTB-131), expressing a functional endogenous wild type AR, was transiently transfected with a reporter plasmid and tested for AR dependent transactivation activity in the absence or presence of test compounds. The pGL3 PSA-Luc reporter plasmid is comprised of the cDNA for the firefly luciferase gene and the upstream promoter sequences containing the androgen response elements (AREs) of the prostate specific antigen (PSA). This plasmid functions as a reporter for the transcription-modulating activity of the AR. In order to detect antagonists, the transactivation assay is conducted in the presence of constant concentration of the natural AR hormone (DHT) to induce a defined reporter signal. Addition of increasing concentrations of the suspected antagonist will decrease the reporter signal (luciferase activity).
MDA-MB-453 and 22 RV1 cells were maintained in DMEM (Cellgro, Cat. #10-014-CM) or RPMI 1640 (Gibco Cat. #11875-085) respectively and supplemented with 10% FBS (Invitrogen/GIBCO Life Science). Cells were bulk transfected in flasks with 1.3 ug/ml pGL3 PSA-Luc plasmid by using the Lipofectamine 2000 Reagent (Invitrogen, Cat. #11668-019) and serum-free Opti-MEM I media (Invitrogen, Cat#31985-070) according to the manufacturer's optimized conditions. Transfection was conducted at 37° C. with 5% CO2 for 16-18 hours. Following transfection, cells are washed, treated with trypsin, counted, and seeded in a 96-well plate at 30,000 cells per well in DMEM containing 10% Charcoal/Dextran Treated Fetal Bovine Serum (Gibco Cat. #11054-020) for MDA-MB-453 cells or RPMI 1640 (Gibco Cat. #110835) containing 10% FBS (Invitrogen/GIBCO Life Science) for 22 RV1 cells.
Following transfection, cells were incubated in the absence (blank) or presence (control) of 3 nM DHT (Sigma, Cat. #A-8380) and in the presence or absence of the standard antiandrogen bicalutamide or test compounds ranging in concentrations from 10^−10 to 10^−5M. Duplicates were used for each sample. The compound dilutions were performed by the Tecan Genesis (Tecan, Triangle Park, N.C.). After a 48 hour incubation, luciferase activity was measured using the Steady-Glo Luciferase Assay System (Promega, Cat. #E2550) according to manufacturer's specifications and luminescence was measured on a Packard TopCount (PerkinElmer). For each luciferase sample reading, the percent control (in absence of compounds) was calculated as: % Control=100×[averagesample−averageblank]/[averagecontrol−averageblank] Data was plotted and the IC50 value was defined as the concentration of compound that inhibited 50% of the luciferase activity for the controls.

For the molecule `CCC(=O)O[C@H]1CC[C@H]2[C@@H]3CCC4=CC(=O)CC[C@]4(C)[C@H]3CC[C@]12C` [TP, testosterone propionate], in the data set with immature castrated rats [1], the “potency relative to free T” value was 10-30 fold. The “EC50 (increase in organ weight)” value with immature castrated rats [2] is listed as approximately 0.03 mg.

Turning to `N#Cc1ccc(N2CC3C([C@@H]4CC[C@H]3O4)S2(=O)=O)cc1C(F)(F)F` (stereo in doubt) [Example 6, 4-((1S,2R,6R,7R)-3,3-dioxido-10-oxa-3-thia-4-azatricyclo[5.2.1.0^2,6]dec-4-yl)-2-(trifluoromethyl)benzonitrile], the Ki on wild type AR came to 23 nM. Further, the IC50 against androgen receptor (AR) is 198 nM.

In turn, `N#Cc1ccc(N2C[C@@H]3[C@@H]([C@@H]4C=C[C@H]3O4)S2(=O)=O)cc1C(F)(F)F` (racemic) [Example 1ii] yielded a Ki at wild type AR of 29 nM. The IC50 against androgen receptor (AR) turned out to be 108 nM.

Regarding `C[C@]12CC[C@H]3[C@@H](CCC4=CC(=O)CC[C@@]43C)[C@@H]1CC[C@@H]2O` [T, testosterone], in the data set on immature castrated rats [2] (2 hours after subcutaneous injection), the “serum concentrations of T and DHT relative to that of TP” value is 5 times. In addition, the “EC50 (increase in organ weight)” value in the data set with immature castrated rats [2] is given as “about 1 mg”.

In turn, `COC(=O)N[C@@H]1C[C@@H]2O[C@H]1[C@@H]1CN(c3ccc(C#N)c(C(F)(F)F)c3)S(=O)(=O)[C@@H]12` (racemic) [Example 26i, methyl rac-((1R,2R,6R,7R,8S)-4-(4-cyano-3-(trifluoromethyl)phenyl)-3,3-dioxido-10-oxa-3-thia-4-azatricyclo[5.2.1.0^2,6]dec-8-yl)carbamate] returned a Ki at wild type AR of 266 nM. This molecule displayed an IC50 on androgen receptor (AR) of 3130 nM.

The molecule `C[C@]12CC[C@](C)(O1)[C@@H]1[C@H]2CN(c2ccc(C#N)c(C(F)(F)F)c2)S1(=O)=O` (racemic) [Example 18, rac-4-((1R,2R,6R,7S)-1,7-dimethyl-3,3-dioxido-10-oxa-3-thia-4-azatricyclo[5.2.1.0^2,6]dec-4-yl)-2-(trifluoromethyl)benzonitrile] registered a Ki at wild type AR of 222 nM. Further, the IC50 at androgen receptor (AR) is 1350 nM.

`N#Cc1ccc(N2C[C@H]3[C@@H]4O[C@@H](C[C@H]4O)[C@H]3S2(=O)=O)cc1C(F)(F)F` (racemic) [Example 10iii] returned a Ki at wild type AR of 568 nM. Besides, the IC50 against androgen receptor (AR) worked out at 8320 nM.
